Measured values taken from ChEMBL document CHEMBL4800728, “Data for DCP probe JNJ-54119936” (2021).

How the values were obtained:
[1] = molecular target: Nuclear receptor ROR-beta (Homo sapiens) (UniProt Q92753); experiment: ThermoFluor Binding Assay (RORB)
[2] = molecular target: Nuclear receptor ROR-alpha (Homo sapiens) (UniProt P35398); experiment: ThermoFluor Binding Assay (RORA)
Nuclear receptor ROR-alpha (Homo sapiens), sequence (P35398 whole entry): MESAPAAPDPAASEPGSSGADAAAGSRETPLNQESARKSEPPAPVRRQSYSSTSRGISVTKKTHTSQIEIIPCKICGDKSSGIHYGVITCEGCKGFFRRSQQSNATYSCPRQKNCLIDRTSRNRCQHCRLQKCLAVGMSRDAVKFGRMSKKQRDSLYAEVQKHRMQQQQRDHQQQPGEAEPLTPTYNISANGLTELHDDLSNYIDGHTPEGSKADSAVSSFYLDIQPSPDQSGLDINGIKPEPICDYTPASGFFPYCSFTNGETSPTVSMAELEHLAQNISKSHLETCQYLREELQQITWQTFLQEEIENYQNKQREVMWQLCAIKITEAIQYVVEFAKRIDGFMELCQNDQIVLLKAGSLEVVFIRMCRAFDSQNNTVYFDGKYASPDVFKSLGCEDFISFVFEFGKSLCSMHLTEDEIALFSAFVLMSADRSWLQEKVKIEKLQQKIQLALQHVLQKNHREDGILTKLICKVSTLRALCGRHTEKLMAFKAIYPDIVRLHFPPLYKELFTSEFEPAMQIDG

Nuclear receptor ROR-beta (Homo sapiens), sequence (Q92753 whole entry): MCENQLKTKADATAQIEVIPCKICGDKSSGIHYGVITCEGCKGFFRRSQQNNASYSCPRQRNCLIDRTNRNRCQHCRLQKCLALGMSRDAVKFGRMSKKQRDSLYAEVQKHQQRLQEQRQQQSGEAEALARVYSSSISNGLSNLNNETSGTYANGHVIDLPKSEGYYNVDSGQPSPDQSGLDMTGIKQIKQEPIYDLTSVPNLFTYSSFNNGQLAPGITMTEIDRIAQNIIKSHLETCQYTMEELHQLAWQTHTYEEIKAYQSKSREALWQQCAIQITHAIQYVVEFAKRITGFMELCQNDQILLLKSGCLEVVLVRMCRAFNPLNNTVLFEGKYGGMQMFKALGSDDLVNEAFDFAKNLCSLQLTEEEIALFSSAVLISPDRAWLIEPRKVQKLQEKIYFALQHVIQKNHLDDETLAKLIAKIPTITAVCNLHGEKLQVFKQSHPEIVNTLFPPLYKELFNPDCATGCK

COc1nc2ccc([C@@](O)(c3ccc(Cl)cc3)c3cncn3C)cc2c(Cl)c1Cc1ccc(-n2cccn2)cc1
qKD [1]: 40 µM | qKD [2]: 16.8 µM
